# Data published in patent publication US20230271950A1, “ANTIBACTERIAL PICOLINAMIDE COMPOUNDS” (University of Notre Dame Du Lac, priority 2020, published 2023).
# Like-named read-outs stand apart in the source and are kept apart here.
# Columns and labels:
# C. difficile = test: MIC by broth microdilution against C. difficile strains; format: cell-based, Clostridioides difficile
# MRSA (NRS70, NRS119) = test: MIC against MRSA strains; format: cell-based, Staphylococcus aureus; conditions: for MIC: Staphylococcus aureus, read-out: MIC
smiles,measurement,setting,value
"O=C(O)c1ccc2oc(NC(=O)c3cc(Oc4cccc(OC(F)(F)F)c4)ccn3)nc2c1 [Compound 1, Sodium 2-(4-(3-(trifluoromethoxy)phenoxy)picolinamido)benzo[d]oxazole-5-carboxylate]",MIC,"C. difficile; C. difficile NR-49299, Table 9",0.125 µg/mL
same,MIC,"C. difficile; C. difficile NR-49300, Table 9",0.125 µg/mL
same,MIC,"C. difficile; C. difficile NR-49301, Table 9",0.125 µg/mL
same,MIC,"C. difficile; C. difficile NR-49303, Table 9",0.125 µg/mL
same,MIC,"C. difficile; C. difficile NR-49307, Table 9",0.125 µg/mL
same,MIC,"C. difficile; C. difficile NR-49308, Table 9",0.125 µg/mL
same,MIC,"C. difficile; C. difficile NR-49309, Table 9",0.125 µg/mL
same,MIC,"C. difficile; C. difficile NR-49312, Table 9",0.125 µg/mL
same,MIC,"C. difficile; C. difficile NR-49314, Table 9",0.125 µg/mL
same,MIC,"C. difficile; C. difficile NR-49315, Table 9",0.125 µg/mL
same,MIC,"C. difficile; C. difficile NR-49316, Table 9",0.125 µg/mL
same,MIC,"C. difficile; C. difficile NR-49317, Table 9",0.125 µg/mL
same,MIC,"C. difficile; C. difficile NR-49319, Table 9",0.125 µg/mL
same,MIC,"C. difficile; C. difficile NR-49320, Table 9",0.125 µg/mL
same,MIC,"C. difficile; C. difficile NR-49323, Table 9",0.125 µg/mL
same,MIC,"C. difficile; C. difficile NR-49324, Table 9",0.125 µg/mL
same,MIC,"C. difficile; C. difficile NR-49325, Table 9",0.125 µg/mL
same,MIC,"C. difficile; C. difficile NR-49326, Table 9",0.125 µg/mL
same,MIC,"C. difficile; C. difficile NR-49329, Table 9",0.125 µg/mL
same,MIC,"C. difficile; C. difficile, Table 8",0.125 µg/mL
same,MIC,C. difficile; Clostridioides difficile,0.125 µg/mL
same,MIC,"C. difficile; Clostridioides difficile, ATCC43255",0.125 µg/mL
same,MIC,"C. difficile; Clostridioides difficile, ATCC43255, C. difficile ATCC 43255, read-out: MIC against C. difficile",0.12 µg/mL
same,MIC,"C. difficile; Clostridioides difficile, ATCC43598",0.125 µg/mL
same,MIC,"C. difficile; Clostridioides difficile, BAA1801",0.125 µg/mL
same,MIC,"C. difficile; Clostridioides difficile, BAA1803, C. difficile BAA-1803, Table 7, read-out: MIC",0.0625 µg/mL
same,MIC,"C. difficile; Clostridioides difficile, BAA1803, C. difficile BAA-1803, Table 9, read-out: MIC",0.06 µg/mL
same,MIC,"C. difficile; Clostridioides difficile, BAA1804",0.125 µg/mL
same,MIC,"C. difficile; Clostridioides difficile, BAA1812",0.125 µg/mL
same,MIC,"C. difficile; Clostridioides difficile, BAA1814",0.125 µg/mL
same,MIC,"C. difficile; Clostridioides difficile, BAA1870",0.125 µg/mL
same,MIC,"C. difficile; Clostridioides difficile, C. difficile 23828 (FR, fidaxomicin-resistant), Table 7, read-out: MIC",0.25 µg/mL
same,MIC,"C. difficile; Clostridioides difficile, C. difficile 23828, clinical isolate resistant to FDX, Table 1, read-out: MIC",0.25 µg/mL
same,MIC,"C. difficile; Clostridioides difficile, C. difficile 23828, Table 9, read-out: MIC",0.25 µg/mL
same,MIC,"C. difficile; Clostridioides difficile, C. difficile 24531 (VR, vancomycin-resistant), Table 7, read-out: MIC",0.25 µg/mL
same,MIC,"C. difficile; Clostridioides difficile, C. difficile 24531, Table 9, read-out: MIC",0.25 µg/mL
same,MIC,"C. difficile; Clostridioides difficile, C. difficile 26675 (MR, metronidazole-resistant), Table 7, read-out: MIC",0.25 µg/mL
same,MIC,"C. difficile; Clostridioides difficile, C. difficile 26675, clinical isolate resistant to MTZ, Table 1, read-out: MIC",0.25 µg/mL
same,MIC,"C. difficile; Clostridioides difficile, C. difficile 26675, Table 9, read-out: MIC",0.25 µg/mL
same,MIC,"C. difficile; Clostridioides difficile, C. difficile HM-88, Table 9, read-out: MIC",0.25 µg/mL
same,MIC,"C. difficile; Clostridioides difficile, C. difficile NR49294, Table 7, read-out: MIC",0.0625 µg/mL
same,MIC,"C. difficile; Clostridioides difficile, C. difficile NR49294, Table 9, read-out: MIC",0.06 µg/mL
same,MIC,"C. difficile; Clostridioides difficile, C. difficile NR49302, Table 7, read-out: MIC",0.0625 µg/mL
same,MIC,"C. difficile; Clostridioides difficile, C. difficile NR49302, Table 9, read-out: MIC",0.06 µg/mL
same,MIC,"C. difficile; Clostridioides difficile, C. difficile NR49305, Table 7, read-out: MIC",0.0625 µg/mL
same,MIC,"C. difficile; Clostridioides difficile, C. difficile NR49305, Table 9, read-out: MIC",0.06 µg/mL
same,MIC,"C. difficile; Clostridioides difficile, C. difficile NR49318, Table 7, read-out: MIC",0.06 µg/mL
same,MIC,"C. difficile; Clostridioides difficile, C. difficile NR49318, Table 9, read-out: MIC",0.06 µg/mL
same,MIC,"C. difficile; Clostridioides difficile, C. difficile NR-13429, Table 9, read-out: MIC",0.06 µg/mL
same,MIC,"C. difficile; Clostridioides difficile, C. difficile NR-13431, Table 9, read-out: MIC",0.06 µg/mL
same,MIC,"C. difficile; Clostridioides difficile, C. difficile NR-13433, Table 9, read-out: MIC",0.25 µg/mL
same,MIC,"C. difficile; Clostridioides difficile, C. difficile NR-32885, Table 9, read-out: MIC",0.25 µg/mL
same,MIC,"C. difficile; Clostridioides difficile, C. difficile NR-32890, Table 9, read-out: MIC",0.25 µg/mL
same,MIC,"C. difficile; Clostridioides difficile, C. difficile NR-32891, Table 9, read-out: MIC",0.25 µg/mL
same,MIC,"C. difficile; Clostridioides difficile, C. difficile NR-32895, Table 9, read-out: MIC",0.25 µg/mL
same,MIC,"C. difficile; Clostridioides difficile, C. difficile NR-32896, Table 9, read-out: MIC",0.25 µg/mL
same,MIC,"C. difficile; Clostridioides difficile, C. difficile NR-32903, Table 9, read-out: MIC",0.25 µg/mL
same,MIC,"C. difficile; Clostridioides difficile, C. difficile NR-49281, Table 9, read-out: MIC",0.06 µg/mL
same,MIC,"C. difficile; Clostridioides difficile, C. difficile NR-49283, Table 9, read-out: MIC",0.06 µg/mL
same,MIC,"C. difficile; Clostridioides difficile, C. difficile NR-49284, Table 9, read-out: MIC",0.25 µg/mL
same,MIC,"C. difficile; Clostridioides difficile, C. difficile NR-49285, Table 9, read-out: MIC",0.03 µg/mL
same,MIC,"C. difficile; Clostridioides difficile, C. difficile NR-49287, Table 9, read-out: MIC",0.06 µg/mL
same,MIC,"C. difficile; Clostridioides difficile, C. difficile NR-49289, Table 9, read-out: MIC",0.25 µg/mL
same,MIC,"C. difficile; Clostridioides difficile, C. difficile NR-49297, Table 9, read-out: MIC",0.06 µg/mL
same,MIC,"C. difficile; Clostridioides difficile, C. difficile NR-49298, Table 9, read-out: MIC",0.06 µg/mL
same,MIC,"C. difficile; Clostridioides difficile, C. difficile NR-49304, Table 9, read-out: MIC",0.25 µg/mL
same,MIC,"C. difficile; Clostridioides difficile, C. difficile NR-49306, Table 9, read-out: MIC",0.25 µg/mL
same,MIC,"C. difficile; Clostridioides difficile, C. difficile NR-49311, Table 9, read-out: MIC",0.25 µg/mL
same,MIC,"C. difficile; Clostridioides difficile, C. difficile NR-49313, Table 9, read-out: MIC",0.06 µg/mL
same,MIC,"C. difficile; Clostridioides difficile, C. difficile NR-49321, Table 9, read-out: MIC",0.25 µg/mL
same,MIC,"C. difficile; Clostridioides difficile, C. difficile NR-49327, Table 9, read-out: MIC",0.25 µg/mL
same,MIC,"C. difficile; Clostridioides difficile, C. difficile NR-49328, Table 9, read-out: MIC",0.06 µg/mL
same,MIC50,"C. difficile; Clostridioides difficile, 101 C. difficile strains",0.12 µg/mL
same,MIC90,"C. difficile; Clostridioides difficile, 101 C. difficile strains, read-out: MIC90 (101 strains)",0.25 µg/mL
same,Selectivity,"C. difficile; MIC MRSA NRS70/MIC C. difficile ATCC43255, Table 7",128
same,Selectivity,C. difficile; Table 8,128
same,lower activity against MRSA,"MRSA (NRS70, NRS119); MRSA versus C. difficile, Table 1",128 fold
same,MIC,"MRSA (NRS70, NRS119); MRSA NRS70, Table 1",16 µg/mL
same,MIC,"MRSA (NRS70, NRS119); MRSA NRS70, Table 7",16 µg/mL
same,MIC,"MRSA (NRS70, NRS119); MRSA NRS119, Table 1",16 µg/mL
